Assay results reported in patent US6710090B2, “Inhibitory or blocking agents of molecular generating and/or inducing functions” (priority 1994, dated 2004).

What was measured:
[1] = system: trypsin; experiment: Function and configuration of trypsin, electrophoresis; assay type: biochemical; details: after treatment with Yoshixol 4 μl
Method: Each physiological effect of trypsin (Wakou Jyunyaku Ltd.) and thrombin (Behlinger Manheim-Yamanouchi Co.) was investigated by electrophoresis. When trypsin was added to bovine albumin (Sigma Co. Saint Louis, Mo., USA) or myoglobin (Sigma Co. Saint Louis, Mo., USA), each primary structure of proteins which consist of albumin was altered by proteolytic action of trypsin. In addition, when thrombin was added to human fibrinogen (Behlinger Manheim-Yamanouchi Co.), a primary structure of proteins which consists of fibrinogen was not found.

[2] = system: single strand DNA, double strand DNA and mRNA of E. coli bacteriophage; experiment: Antiviral effect, E. coli bacteriophage structure and infection, electron microscopes; assay type: cell-based
Method: In order to investigate the effect on virus, changes in structure of single strand DNA, double strand DNA and mRNA of E. coli bacteriophage (1 ml of 1 mol solution), which were prepared as non-treated sample and treated sample with 4 μl of Yoshixol, were observed by scanning and transmission electron microscopes. In addition, according a general bacteriological technique, changes in proliferation and in morphological aspect (by scanning and transmission electron microscopes) of E. Coli, which was infected by single strand DNA, double strand DNA or mRNA, were investigated before and after treatment of each phage with Yoshixol. As treated samples, 4 μl of Yoshixol was added in 1 ml of each phage solution which concentration was adjusted to 1 mol. […] In addition, an effect of Yoshixol on chicken myeloblastosis virus (AMV) reverse transcriptase (Gibco Co. Getesburg, Md., USA) was investigated by measuring amount of cDNA synthesis, which was amplified by PCR of RNA(5 μg) and AMV reverse transcriptase (25 units). As treated group, 0.01 μl of Yoshixol was added to 25 units sample of the AMV reverse transcriptase. Thus, the expected production of cDNA was obtained in the non-treated group, however, the amount of cDNA production decreased to 10% of the expected one when Yoshixol was treated (referred FIG. 15).

[3] = system: primer (SEQ ID NO: 2) and snake DNA; experiment: PCR with primer or DNA template treated with Yoshixol; assay type: biochemical
Method: Effect of Yoshixol on PCR was investigated by DNA template which was extracted from snake (blue-green snake, captured at Matsumoto city, Nagano). The new synthesized dimer of (SEQ ID NO: 2) (5′>CTTCGGGCTTCGGG<3′) with 7 base-pair alignment (CTTCGGG) above-mentioned was used as a primer. PCR reaction was done by use of DNA thermal cycler (PJ-2000) made in PERKIN ELMER CETUS company. The following six combinations were prepared for the test samples. Those are two kinds of samples which consist of 5 μl of primer (100 pico mole/μl) with 5 μl of Yoshixol (P+) and without Yoshixol (P−). In addition, two kinds of samples which consist of 5 μl. of snake DNA (500 ng/μl) with 5 μl of Yoshixol (D+) and without Yoshixol (D−). And, additional two kinds of samples which consist of 1 μl of polymerase enzymes (Recombinant Taq DNA Polymerase, No. R001A, TaKaRa Shuzo Co., Otsu city: 5 unit/pd) with 1 μl of Yoshixol (Pm+) and without Yoshixol (Pm−). After each sample was placed for 10 minutes at room temperature, each sample was diluted in distilled water. And, it is adjusted in a primer solution of 10 picomole/μl, DNA solution of 50 ng/μl and a polymerase enzymes solution of 0.5 unit/μl. Then, the following combinations were prepared. […] In each combination, amount of cDNA synthesis was amplified by a PCR method and was measured. […]

[4] = biological target: thrombin (Homo sapiens, UniProt P00734); experiment: Composition of amino acids in thrombin; assay type: biochemical; design: 1 ml of human thrombin before and after treatment with Yoshixol; details: did not exist before treatment; Yoshixol 4 μl
Method: Changes in composition of amino acids were analyzed by use of 1 ml of human blood serum, 1 ml of human fibrinogen (concentration of 160 mg/dl), 1 ml of human thrombin before and after treatment with Yoshixol (4 μl). The total amino acids in the human blood serum which was treated with Yoshixol decreased by 41%. And, ratio of each composition was altered after the treatment so that as an example the concentration of phosphoserine increased about 20 times which level was from 7.2 picomole to 164.8 picomole.

[5] = biological target: T1, vasopressin (Homo sapiens, UniProt P01185); experiment: Physiological function of vasopressin treated with Yoshixol, blood pressure; assay type: in vivo; details: rabbit, intravenous vasopressin 100 ng/Kg treated with Yoshixol 4 μl; untreated vasopressin 15-25 mmHg
T1 construct: Effect on Physiological Function of Vasopressin and Insulin as Peptides; purchased Sigma Co. Saint Louis, Mo., USA
Method: Each vasopressin and insulin has a physiological effect such as a rise of blood pressure and a fall of sugar level in blood respectively. An effect of Yoshixol on these physiological functions was investigated and compared by injection of each hormone without or with treatment with Yoshixol in rabbit in vivo. When vasopressin (100 ng/Kg, Sigma Co. Saint Louis, Mo., USA) without treatment with Yoshixol was injected intravenously, blood pressure increased by 15-25 mmHg so that this increased level was maintained for about 25 minutes. But, vasopressin (100 ng/Kg) treated with Yoshixol (4 μl) caused a increase in blood pressure of only about 5 mmHg (referred FIG. 6).

**Q.** What does the source list for `C=C1CC(C)(C)C=CC1=O` [Yoshixol, 4,4-dimethyl-6-methylene-2-cyclohexen-1-one]?
**A.** physiological function of trypsin to bovine albumin, myoglobin [1]: did not occur; primary structure of trypsin (electrophoresis) [1]: did not show any electrophoretic changes; helical and multi-dimensional structure of single strand DNA, double strand DNA and mRNA ([2]; 4 μl of Yoshixol in 1 ml phage solution (1 mol), electron microscopes): became a simple structure; adhesion of the phage on the bacterial surface and/or intrabacterial existence ([2]; E. coli infected with phage treated with Yoshixol): not in the treated group; PCR bounds versus P−, D−, Pm−, group P+, D−, Pm− ([3]; only primer processed by Yoshixol (5 μl with 5 μl)): did not differ; PCR bounds versus P−, D−, Pm−, group P−, D+, Pm− ([3]; only snake DNA processed by Yoshixol (5 μl with 5 μl)): did not differ; glutamic acid, taurine, methionine and aminoisobutylic acid in thrombin sample [4]: produced newly; increase in blood pressure [5]: about 5 mmHg
